How the values were obtained:
[1] = tested on: A549; assay: Cytotoxicity against human A549 cells after 48 hrs by MTT assay; assay type: functional, cell-based; conditions: A549, 48 h
[2] = tested on: HepG2; assay: Cytotoxicity against human HepG2 cells after 48 hrs by MTT assay; assay type: functional, cell-based; conditions: HepG2, 48 h
[3] = tested on: A549; assay: Induction of apoptosis human A549 cells assessed as late apoptotic cells at 4 uM after 48 hrs by Annexin V-FITC/PI double staining based flow cytometric analysis (reference value: 7.4%); assay type: functional
[4] = tested on: A549; assay: Induction of apoptosis human A549 cells assessed as late apoptotic cells at 2 uM after 48 hrs by Annexin V-FITC/PI double staining based flow cytometric analysis (reference value: 7.4%); assay type: functional
[5] = tested on: A549; assay: Induction of apoptosis human A549 cells assessed as early apoptotic cells at 2 uM after 48 hrs by Annexin V-FITC/PI double staining based flow cytometric analysis (reference value: 4.3%); assay type: functional
[6] = tested on: A549; assay: Induction of apoptosis human A549 cells assessed as late apoptotic cells at 1 uM after 48 hrs by Annexin V-FITC/PI double staining based flow cytometric analysis (reference value: 7.4%); assay type: functional
[7] = tested on: A549; assay: Induction of cell cycle arrest in human A549 cells assessed as accumulation at G1 phase at 2 uM incubated for 48 hrs by propidium iodide staining based flow cytometry (reference value: 29.60%); assay type: functional
[8] = tested on: A549; assay: Induction of cell cycle arrest in human A549 cells assessed as accumulation at G1 phase at 1 uM incubated for 48 hrs by propidium iodide staining based flow cytometry (reference value: 29.60%); assay type: functional
[9] = tested on: A549; assay: Induction of apoptosis human A549 cells assessed as early apoptotic cells at 1 uM after 48 hrs by Annexin V-FITC/PI double staining based flow cytometric analysis (reference value: 4.3%); assay type: functional
[10] = tested on: A549; assay: Induction of cell cycle arrest in human A549 cells assessed as accumulation at G2 phase at 1.5 uM incubated for 48 hrs by propidium iodide staining based flow cytometry (reference value: 30.41%); assay type: functional
[11] = tested on: A549; assay: Induction of cell cycle arrest in human A549 cells assessed as accumulation at G2 phase at 2 uM incubated for 48 hrs by propidium iodide staining based flow cytometry (reference value: 30.41%); assay type: functional
[12] = tested on: A549; assay: Induction of cell cycle arrest in human A549 cells assessed as accumulation at G1 phase at 1.5 uM incubated for 48 hrs by propidium iodide staining based flow cytometry (reference value: 29.60%); assay type: functional
[13] = tested on: A549; assay: Induction of apoptosis human A549 cells after 48 hrs by Annexin V-FITC/PI double staining based flow cytometric analysis; assay type: functional, cell-based
[14] = tested on: A549; assay: Induction of apoptosis human A549 cells assessed as live cells at 2 uM after 48 hrs by Annexin V-FITC/PI double staining based flow cytometric analysis (reference value: 88%); assay type: functional
[15] = tested on: A549; assay: Induction of cell cycle arrest in human A549 cells assessed as accumulation at S phase at 1 uM incubated for 48 hrs by propidium iodide staining based flow cytometry (reference value: 39.99%); assay type: functional
[16] = tested on: A549; assay: Induction of apoptosis human A549 cells assessed as necrotic cells at 1 uM after 48 hrs by Annexin V-FITC/PI double staining based flow cytometric analysis (reference value: 0.3%); assay type: functional
[17] = tested on: A549; assay: Induction of cell cycle arrest in human A549 cells assessed as accumulation at S phase at 1.5 uM incubated for 48 hrs by propidium iodide staining based flow cytometry (reference value: 39.99%); assay type: functional
[18] = tested on: A549; assay: Induction of apoptosis human A549 cells assessed as early apoptotic cells at 4 uM after 48 hrs by Annexin V-FITC/PI double staining based flow cytometric analysis (reference value: 4.3%); assay type: functional
[19] = tested on: A549; assay: Induction of apoptosis human A549 cells assessed as live cells at 4 uM after 48 hrs by Annexin V-FITC/PI double staining based flow cytometric analysis (reference value: 88%); assay type: functional
[20] = tested on: A549; assay: Induction of cell cycle arrest in human A549 cells assessed as accumulation at S phase at 2 uM incubated for 48 hrs by propidium iodide staining based flow cytometry (reference value: 39.99%); assay type: functional
[21] = tested on: A549; assay: Induction of apoptosis human A549 cells assessed as live cells at 1 uM after 48 hrs by Annexin V-FITC/PI double staining based flow cytometric analysis (reference value: 88%); assay type: functional
[22] = tested on: A549; assay: Induction of apoptosis human A549 cells assessed as necrotic cells at 2 uM after 48 hrs by Annexin V-FITC/PI double staining based flow cytometric analysis (reference value: 0.3%); assay type: functional
[23] = tested on: A549; assay: Induction of cell cycle arrest in human A549 cells assessed as accumulation at G2 phase at 1 uM incubated for 48 hrs by propidium iodide staining based flow cytometry (reference value: 30.41%); assay type: functional
[24] = tested on: A549; assay: Induction of apoptosis human A549 cells assessed as necrotic cells at 4 uM after 48 hrs by Annexin V-FITC/PI double staining based flow cytometric analysis (reference value: 0.3%); assay type: functional

Molecule `C=C/C(C)=C/C[C@]1(C)[C@H](C)C[C@H](O)[C@@]23C(=C[C@@H](OC(=O)C(C)CC)C[C@@H]12)[C@@H](OC)O[C@H]3OC(C)=O` (some centres not stated) has an IC50 [1] greater than 10 µM and an IC50 [2] greater than 10 µM.

With `C=C/C(C)=C/C[C@]1(C)[C@H](C)C[C@H](O)[C@@]23C(=C[C@H](OC(=O)C(C)C)C[C@@H]12)[C@@H](OC)O[C@H]3OC` the IC50 [1] was greater than 10 µM and the IC50 [2] was greater than 10 µM.

`C=C/C(C)=C/C[C@]1(C)[C@H](C)C[C@H](O)[C@@]23C(=C[C@@H](OC(C)=O)C[C@@H]12)[C@@H](OC)O[C@H]3OC(C)=O` was tested, and the IC50 [1] was greater than 10 µM and the IC50 [2] was greater than 10 µM.

`COC(=O)C[C@](O)(CCCC(C)(C)O)C(=O)O[C@@H]1C(OC)=C[C@]23CCCN2CCc2cc4c(cc2[C@H]13)OCO4` [OMACETAXINE MEPESUCCINATE] gave an IC50 [1] of 0.0316 µM and an IC50 [2] of 0.0345 µM.

For `C=C/C(C)=C/C[C@]1(C)[C@H](C)C[C@H](O)[C@@]23C(=C[C@H](OC(=O)C(C)C)C[C@@H]12)[C@@H](OC)O[C@@H]3OC(C)=O`, the IC50 [1] was greater than 10 µM and the IC50 [2] was greater than 10 µM.

`C=C/C(C)=C/C[C@]1(C)[C@H](C)C[C@H](O)[C@@]23C(=C[C@H](OC(=O)CC(C)C)C[C@@H]12)[C@@H](OC(C)=O)O[C@H]3OC(C)=O` gave an Activity [3] of 74.5%, an Activity [4] of 19.9% and an Activity [5] of 26.7%. For the same molecule, the Activity [6] was 18.2%, the Activity [7] was 79.44% and the Activity [8] was 70.25%. The Activity [9] was 6.2%, the Activity [10] was 4.3% and the Activity [11] was 5.19%. The Activity [12] was 70.31%, the Activity [13] was “Dose-dependent effect” and the Activity [14] was 52.7%. The IC50 [1] was 1.9 µM, the Activity [15] was 20.75% and the Activity [16] was 1.1%. For the same molecule, the Activity [17] was 25.39%, the Activity [18] was 15% and the Activity [19] was 5.4%. For the same molecule, the Activity [20] was 15.37%, the Activity [21] was 74.5% and the Activity [22] was 0.8%. It also gave an IC50 [2] of 4.6 µM, an Activity [23] of 9.01% and an Activity [24] of 5.1%.

Molecule `C=C/C(C)=C/C[C@]1(C)[C@H](C)C[C@H](O)[C@@]23C(=C[C@H](OC(=O)C(C)C)C[C@@H]12)[C@@H](OC)O[C@H]3OC(C)=O` has an IC50 [1] greater than 10 µM and an IC50 [2] greater than 10 µM.

In the case of `C=C/C(C)=C/C[C@]1(C)[C@H](C)C[C@H](O)[C@@]23C(=C[C@H](OC(=O)CC(C)C)C[C@@H]12)[C@@H](OC)O[C@H]3OC`, the IC50 [1] is reported as greater than 10 µM and the IC50 [2] is reported as greater than 10 µM.

Molecule `C=C/C(C)=C/C[C@]1(C)[C@H](C)C[C@H](O)[C@@]23C(=C[C@H](OC(=O)CC(C)C)C[C@@H]12)[C@@H](OC)O[C@H]3OC(C)=O` has an IC50 [1] greater than 10 µM and an IC50 [2] greater than 10 µM.

In the case of `C=C/C(C)=C/C[C@]1(C)[C@H](C)C[C@H](O)[C@@]23C(=C[C@H](OC(=O)C(C)CC)C[C@@H]12)[C@@H](OC)O[C@H]3OC(C)=O` (some centres not stated), the IC50 [1] is reported as greater than 10 µM and the IC50 [2] is reported as greater than 10 µM.
